Reference: patent US6664231B1, “Anti-fungal peptides” (priority 1993, dated 2003)

Legend:
[1] = test system: polyene-resistant (ATCC 38247), 5-fluorocytosine-resistant (ATCC 44373), azole-resistant (ATCC 62342), ketoconazole-resistant (ATCC 64124) C. albicans; assay: Fungicidal activity on commercially-available drug-resistant Candida strains; type: cell-based, Candida albicans; conditions: ATCC 38247, 44373, 62342, 64124
Protocol: Further experiments were performed to determine the anti-fungal activity of Domain III derived peptides on commercially-available strains of Candida considered resistant to other anti-fungal agents: polyene-resistant C. albicans (ATCC Accession No. 38247), 5-fluorocytosine-resistant C. albicans (ATCC No. 44373), azole-resistant C. albicans (ATCC No. 62342), and ketoconazole-resistant C. albicans (ATCC No. 64124).

[2] = test system: C. albicans designated CA-1, Strain SLU-1; conditions: designated CA-1, Strain SLU-1, 18 h
Protocol: In each broth assay screening procedure, a colony of C. albicans designated CA-1, Strain SLU-1 that was received from the laboratories of G. Matuschak and A. Lechner, St. Louis University Hospital, St. Louis, Mo., where the strain was maintained, was inoculated into a tube containing 5 mL Sabouraud Dextrose broth (2% dextrose, 1% neopeptone) and incubated overnight at 37° C. with shaking. The overnight culture was diluted 1:50 into 5 mL of fresh broth and incubated for 3 hours at 37° C. Organisms were pelleted by centrifugation in a Beckman J-6M centrifuge for 5 minutes at 3000 rpm (1500×g) and the pellets were resuspended in 5 mL phosphate buffered saline (PBS) and the optical density at 570 nm was determined. On the basis of the determination that one OD unit equals 3×10^7 colony forming units/mL, yeast cells were diluted to 2×10^6 cells/mL in Sabouraud Dextrose broth.
Domain III peptides derived from or based on BPI to be screened were originally constituted in Dulbecco's-PBS, were diluted to 100 μg/mL in broth and were serially diluted 2-fold into wells of a 96 well sterile, flat bottom, non-pyrogenic tissue culture plate (Costar, Cambridge, Mass.). All assays were performed in triplicate. 2×10^5 organisms were added at 100 μl per well; final volume was 200 μL/well; the plate was incubated on a shaker at 37° C. for 18 hours; and the optical densities for each well were read at 590 nm. […] The broth assay data may be set out in terms of minimum inhibitory concentration (MIC), i.e. the lowest concentration required to reduce the optical density at 590 nm to below 0.1.

Candida albicans SLU-1 = assay: Survival of cyclosporin A-immunosuppressed mice systemically infected with Candida albicans; type: in vivo, mouse; conditions: cyclosporin A 10 mg/kg i.p.; 2×10^5 Candida cells; peptide 10 mg/kg, 6 doses; FIG. 7
Protocol: Studies were also performed to determine the effectiveness of representative anti-fungal peptides in cyclosporin A-immunosuppressed mice systemically infected with Candida albicans SLU-1. Groups (15 animals/group) of 9 week-old male DBA/2J mice were immunosuppressed by pretreatment with 10 mg/kg (Day-1) of cyclosporin A administered by intraperitoneal injection. One day later (Day 0), the mice were inoculated with 2×10^5 Candida cells by intravenous injection in the tail vein. Immediately after fungal challenge, the mice were treated with a 0.1 mL volume of 10 mg/kg XMP.284, 10 mg/kg XMP.127, or PBS as a control. Cyclosporin A injections were repeated at Day 1. Day 3. Day 7, and Day 9. XMP.284, XMP.127 or PBS injections were repeated at Day 2, Day 4, Day 6, Day 8 and Day 10. […]. […] However.

[3] = type: physicochemical; conditions: 37° C., at 50 days, acetate buffered saline
Protocol: The lyophilized peptide was dissolved to a concentration of 1 mg/mL in three different buffers. The three formulation buffers used were (a) 10 mM solution acetate, 150 mM sodium chloride pH 4, (b) 10 mM sodium acetate, 150 mM sodium chloride pH 5 and (c) 10 mM sodium acetate, 150 mM sodium chloride pH 6. The formulated peptide samples were incubated at 4° C. and 37C. At each time point, samples were withdrawn from each vial and assayed by C18 reverse phase BPLC, absorbance at 280 nm, and SDS-PAGE. The study was conducted for 50 days.
A 0.46×25 cm Vydac C18 column (cat no. 218TP54) was used on a Shimadzu HPLC system. The column was run in binary gradient mobile phases: A=Water+0.05% TFA, B=acetonitrile+0.05% TFA. […]
Samples were analyzed by SDS polyacrylamide gel electrophoresis, run on Novex 10-20% tricine precast gels (Novex, La Jolla, Calif., EC6625). […] In addition, samples were analyzed photometrically. For this, samples withdrawn at each time point were diluted 6-fold with Millipore water and absorbance was measured at 280 nm and scanning from 210 nm to 340 nm using a Shimadzu UV 160 spectrophotometer. AU samples were filtered prior to absorbance measurement(s).
XMP.284 was soluble in water and unbuffered saline. […] There was very little product loss, as measured by absorbance at 280 nm, in 0.15 M saline buffered with 10 mM acetate at pH 4, 5 or 6. […]

[4] = test system: endotoxin (E. coli O111:B4); assay: Mouse experimental endotoxemia model; type: in vivo; conditions: endotoxin 20 mg/kg, 7 days
Protocol: Domain III derived peptides are also tested for LPS neutralizing efficacy in an in vivo mouse experimental endotoxemia model. […] This was followed by a second intravenous injection of the peptide to be tested. Injections of saline were used in negative control mice. […] The efficacy of the peptides was measured by a decrease in endotoxemia-associated mortality in peptide-injected mice as compared with control mice. […] No animals survived in the saline control group.

[5] = type: physicochemical
Protocol: XMP.284 was soluble in water and unbuffered saline. XMP.284 was also soluble in 10 mM sodium phosphate, 150 mM sodium chloride pH 7. […] There was very little product loss, as measured by absorbance at 280 nm, in 0.15 M saline buffered with 10 mM acetate at pH 4, 5 or 6. […] Presently preferred is a formulation that includes 10 mM sodium acetate, 150 mM sodium chloride, pH 5.

Compound	Fungicidal activity on resistant strains [1]	minimum inhibitory concentration (MIC), lowest concentration required to reduce the optical density at 590 nm to below 0.1 [2]	protection against infection, survival compared with PBS controls (Candida albicans SLU-1)	new HPLC peaks accumulated [3]	protection from endotoxemia-associated mortality ([4]; 0.5 mg/kg dose i.v., FIG. 9)	animals protected ([4]; 1 mg/kg dose i.v.)	solubility in the phosphate buffer on heating [5]	solubility in water and unbuffered saline [5]
H-KSKVGWLIQLFHKK-NH2 [XMP.13]	not reduced	12.5 µg/mL						
C[C@@H]1[C@H](O)[C@@H](C)/C=C/C=C/C=C/C=C/C=C/C=C/C=C/[C@H](O[C@@H]2O[C@H](C)[C@@H](O)[C@H](N)[C@@H]2O)C[C@@H]2O[C@](O)(C[C@@H](O)C[C@@H](O)[C@H](O)CC[C@@H](O)C[C@@H](O)CC(=O)O[C@H]1C)C[C@H](O)[C@H]2C(=O)O [Amphotericin B, amphotericin B, reference compound]			protected					
H-SKVKWLIQLFHKK-NH2 [XMP.284]			provided protection	less than 0.5%	significant protection	14 of 15	remained soluble	soluble
